Measurements: patent US20220339596A1, “METHOD FOR PRODUCING RADICALS, METHOD FOR STERILIZING SPORES, AND CANCER TREATMENT DRUG” (priority 2019, published 2022)
Like-named read-outs stand apart in the source and are kept apart here.

Columns and labels:
[1] = tested on: Spores of Bacillus subtilis; type: cell-based
Protocol: Bacillus subtilis was scattered over a nutrient agar medium and incubated at 37° C. for 1 week. Colonies were scraped off from the agar medium and washed by being suspended in a physiological saline solution, and Bacillus subtilis collected through centrifugal separation was taken to be cell spores. The cell spores were suspended in a physiological saline solution at a concentration of about 6×10^6 spores/mL. The suspension of cell spores was prepared so as to have the target concentration of cell spores by being diluted with purified water as appropriate.
On the other hand, a reagent having a pH of 7.0 was prepared and irradiated with light using the LED in the same manner as that described above in (1) to generate radicals. The reagent (chlorine dioxide radical concentration: 600 μmol/L) in which radicals were generated was diluted with a 10 mmol/L potassium phosphate buffer solution (pH: 7.0) as appropriate to prepare samples containing radicals at predetermined concentrations. […] Thereafter, the liquid mixture was scattered over brain heart agar, incubation was performed at 37° C. for 12 hours, and then the number of colonies was counted.
As control 1, a reagent having a pH of 7.0 that was not irradiated with light was added to the suspension of cell spores and was left to stand, and incubation was performed as described above, and then the number of colonies was counted. […]

[2] = ClO2 radical concentration over time (absorption spectrum); type: physicochemical; settings: photoirradiation not performed
Protocol: 1 mL of each of the reagents was placed in a disposable cell UV (product name: Two-face transparent semimicro #1941,Nikko Hansen & CO., LTD.), and was irradiated with light via a side surface of the cell using an LED in the same manner as in Example 1 (1) described above. The photoirradiation was performed similarly to Example 1 described above, unless otherwise specified. […] Then, an absorption spectrum was measured over time from the start of irradiation using the double optical path spectrophotometer (product name: UV-2400PC, SHIMADZU CORPORATION), and the molar concentration of chlorite ions (ClO2^−) was calculated from an absorbance at the minimum absorption of the wavelength of 260 nm, and the molar concentration of chlorine dioxide radicals (ClO2^⋅) was calculated from an absorbance at the maximum absorption of the wavelength of 359 nm.

Yeast cells = type: cell-based
Protocol: Yeast was inoculated into a modified YPE liquid medium (2% of polypeptone, 1% of yeast extract, 2% of ethanol, and 0.2% of glucose) and was incubated at 30° C. for 1 day. A bacterial liquid was collected from the liquid medium and washed by being suspended in purified water, and yeast cells collected through centrifugal separation were taken as a specimen. The cells were suspended in a 100 mmol/L potassium phosphate buffer solution (pH: 7.0) at a concentration of about 5×10^8 cells/mL. Also, the suspension of cells was diluted with a 100 mmol/L potassium phosphate buffer solution as appropriate so as to have a target concentration of cells.
The reagent containing chlorine dioxide radicals prepared as described above in (3) was diluted with a 10 mmol/L potassium phosphate buffer solution (pH: 7.0) to prepare a sample containing chlorine dioxide radicals at a concentration of 20 μmol/L. On the other hand, the suspension of cells prepared in (1) was diluted with a 10 mmol/L potassium phosphate buffer solution (pH: 7.0) such that the concentration of cells was about 5×10^8 cells/mL. Next, 0.5 mL of the sample containing chlorine dioxide radicals was mixed with 0.5 mL of the suspension of cell spores, and the liquid mixture was left to stand at room temperature for 30 minutes. Thereafter, the liquid mixture was scattered over brain heart agar and incubated at 30° C. for 1 day, and then the number of colonies was counted.
Then, similarly to Experiment 1 described above, 0.5 mL of a yeast solution having a yeast cell concentration of about 5×10^8 cells/mL was added to 0.5 mL of the reagent, and 1 mL of the resultant solution was placed in a disposable cell UV (product name: Two-face transparent semimicro #1941, Nikko Hansen & CO., LTD.), and was irradiated with light using an LED via a side surface of the cell. […] The radiant energy under the above condition was calculated as 37.8 J/cm^2. The solution after the treatment was scattered over brain heart agar after being diluted as appropriate, and incubated at 30° C. for 1 day, and then the number of colonies was counted.

Candida albicans = type: cell-based
respiratory chain [3] = assay: Electron transfer activity of the respiratory chain in yeast cells; type: cell-based; settings: in proportion to the reduction in survival rate
Source text: (§1) Accordingly, it is supposed that the respiratory chain in mitochondria was one target portion of the yeast cells and the Candida cells treated with chlorine dioxide radicals. It is thought that when the respiratory chain is damaged, ROS (Reactive Oxygen Species) are generated, which leads to apoptosis and the death of cells.

respiratory chain [4] = assay: Electron transfer activity of the respiratory chain in Candida cells; type: cell-based, Candida albicans; settings: in proportion to the reduction in survival rate
Source text: as §1

[5] = tested on: HT-29 cells (human colon adenocarcinoma cells); settings: for cancer cells killed: 455 nm light 72 J/cm^2
Protocol: HT-29 cells (human colon adenocarcinoma cells) were inoculated into each well of a cell incubation microplate (subjected to surface treatment) having 96 wells and grown in a CO2 incubator at 37° C. in the presence of 5% of CO2 until the number of cells reached about 2000 cells/well. 90 μL of McCoy's 5a Medium (the name of a product manufactured by FUJIFILM Wako Pure Chemical Corporation) was used as the cell culture medium. Next, after each treatment described below in (1) to (6) was performed, the medium was replaced with 90 μL of McCoy's 5a Medium and the cells were incubated in the CO2 incubator for 2 days under the above conditions. 10 μL of a WST-8 solution (solution in a product “WST-8 Cell Proliferation Kit”, Funakoshi Co., Ltd.) was added to measure the number of living cells, then incubation was performed in the CO2 incubator (37° C.) for 5 hours, and thereafter an absorbance of 450 nm was measured using a microplate reader. The percentage of the absorbance of each sample relative to an absorbance when treatment (1), which was a control experiment, was performed was calculated. The absorbance when treatment (1) was performed was almost the same as the absorbance of untreated cells.
Conditions of treatments (1) to (6) and percentages of absorbances of samples obtained through the treatments were as follows. The amount by which the percentage of an absorbance decreased from 100% is presumed to be substantially equal to a death rate (%) of cancer cells.
(1) The medium was replaced with 100 μL of PBS (pH: 7.0)** and left to stand at room temperature for 30 minutes. ------ Absorbance percentage: 100% (2) The medium was replaced with 100 μL of PBS (pH: 7.0) and irradiated with light (radiant energy: 72 J/cm^2) at room temperature for 30 minutes using an LED (product name: M455L3, Thorlabs Japan Inc., wavelength: 455 nm, irradiance: 40 mW/cm^2). ------ Absorbance percentage: 96% (3) The medium was replaced with 100 μL of PBS (pH: 7.0) containing 1.4 mM of NaClO2 and left to stand at room temperature for 30 minutes. ------ Absorbance percentage: 97% (4) The medium was replaced with 100 μL of PBS (pH: 7.0) containing 1.4 mM of NaClO2 and irradiated with light (radiant energy: 72 J/cm^2) at room temperature for 30 minutes using an LED (product name: M455L3, Thorlabs Japan Inc., wavelength: 455 nm, irradiance: 40 mW/cm^2). ------ Absorbance percentage: 11% (5) The medium was replaced with 100 μL of PBS (pH: 7.0) containing 2.8 mM of NaClO2 and left to stand at room temperature for 30 minutes. ------ Absorbance percentage: 97% (6) The medium was replaced with 100 μL of PBS (pH: 7.0) containing 2.8 mM of NaClO2 and irradiated with light (radiant energy: 72 J/cm^2) at room temperature for 30 minutes using an LED (product name: M455L3, Thorlabs Japan Inc., wavelength: 455 nm, irradiance: 40 mW/cm^2). ------ Absorbance percentage: 6% **: A phosphate-buffered saline whose pH was adjusted to 7.0 and osmotic pressure was adjusted to be the same as that of a standard phosphate-buffered saline having a pH of 7.5 was used. Specifically, PBS (pH: 7.0) had the following composition: NaCl: 140 mM, KCl: 0.43 mM, KH2PO4: 3.72 mM, Na2HPO4: 5.81 mM.

[6] = Experiment 1: 20 μmol/L chlorine dioxide radical sample mixed 1:1 with cell suspension, room temperature 30 minutes
[7] = control: sodium chlorite aqueous solution not irradiated with light, 25° C. 1 hour

[O][Cl+][O-] [chlorine dioxide radicals]
number of spores decreased to ([1]; chlorine dioxide radical concentration 300 μmol/L, room temperature 30 minutes): ≤ 10^−6 | time in which ClO2 radical concentration decreased by about half [2]: ~2 h | concentration of cells after treatment (Yeast cells; [6]): about 2.5×10^7 cells/mL | survival rate relative to untreated (Yeast cells; [6]): about one tenth | survival rate relative to untreated (Candida albicans; as Experiment 1 (pre-generated chlorine dioxide radicals)): about one tenth | electron transfer activity of the respiratory chain (respiratory chain [3]): reduction | electron transfer activity of the respiratory chain (respiratory chain [4]): reduction

sodium chlorite
reduction in the number of spores ([1]; control 1: reagent pH 7.0 not irradiated with light): not confirmed | survival rate (Yeast cells; [7]): did not decrease | survival rate relative to untreated (Candida albicans; as Experiment 2 (sodium chlorite with LED irradiation)): about one tenth | survival rate (Candida albicans; [7]): did not decrease | cancer cells killed ([5]; 1.4 mM): about 89% | cancer cells killed ([5]; 2.8 mM): ~94% | Absorbance percentage (450 nm, relative to treatment (1)) ([5]; treatment (3): 1.4 mM, PBS pH 7.0, room temperature 30 minutes, no light): 97% | Absorbance percentage (450 nm, relative to treatment (1)) ([5]; treatment (4): 1.4 mM, PBS pH 7.0, 455 nm LED 40 mW/cm^2 30 minutes (72 J/cm^2)): 11% | Absorbance percentage (450 nm, relative to treatment (1)) ([5]; treatment (5): 2.8 mM, PBS pH 7.0, room temperature 30 minutes, no light): 97% | Absorbance percentage (450 nm, relative to treatment (1)) ([5]; treatment (6): 2.8 mM, PBS pH 7.0, 455 nm LED 40 mW/cm^2 30 minutes (72 J/cm^2)): 6%
